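A five-concentration, 48-hour dose response in 96-well plates underlies each endpoint, interpolated linearly between surrounding concentrations. GI50 = concentration required for 50% inhibition of growth.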 Activity calls are given as the source filed them. Rule as the data show it: active = GI50 up to about 1.1 µM and inactive = higher.
Assays:
Assay in all cases: DTP human tumour cell line panel, 48 h
[1] = system: BT-549
[2] = system: COLO 205
[3] = system: EKVX
[4] = system: HCC 2998
[5] = system: HOP-92
[6] = system: HT-29
[7] = system: K562
[8] = system: LOX IMVI
[9] = system: MDA-MB-231
[10] = system: MDA-N
[11] = system: MOLT-4
[12] = system: NCI-H522
[13] = system: OVCAR-8
[14] = system: PC-3
[15] = system: SF-268
[16] = system: SK-MEL-2
[17] = system: SK-MEL-5
[18] = system: SNB-19
[19] = system: SR
[20] = system: U-251

SMILES | GI50 [1] | GI50 [2] | GI50 [3] | GI50 [4] | GI50 [5] | GI50 [6] | GI50 [7] | GI50 [8] | GI50 [9] | GI50 [10] | GI50 [11] | GI50 [12] | GI50 [13] | GI50 [14] | GI50 [15] | GI50 [16] | GI50 [17] | GI50 [18] | GI50 [19] | GI50 [20]
CCCNc1[nH]c(C(=O)c2ccccc2)c(N)c1C(=S)Nc1ccccc1 | > 100 µM (inactive) | > 100 µM (inactive) | > 100 µM (inactive) | > 100 µM (inactive) | > 100 µM (inactive) | > 100 µM (inactive) | > 100 µM (inactive) | > 100 µM (inactive) | > 100 µM (inactive) | > 100 µM (inactive) | > 100 µM (inactive) | > 100 µM (inactive) | > 100 µM (inactive) | > 100 µM (inactive) | > 100 µM (inactive) | > 100 µM (inactive) | > 100 µM (inactive) | > 100 µM (inactive) | > 100 µM (inactive) | > 100 µM (inactive)
C=CC(c1ccccc1)[C@@]1(OC(C)=O)C(=O)C(=O)OC1C1COC(C)(C)O1 (stereo not given in full) | 12 µM (inactive) | 8.26 µM (inactive) | 17.9 µM (inactive) | 17.2 µM (inactive) | 5.92 µM (inactive) | 15.1 µM (inactive) | 3.94 µM (inactive) | 4.16 µM (inactive) | 14.4 µM (inactive) | 10.4 µM (inactive) | 3.7 µM (inactive) | 3.77 µM (inactive) | 13.1 µM (inactive) | 10.9 µM (inactive) | 24.2 µM (inactive) | 16.4 µM (inactive) | 15.9 µM (inactive) | 19.5 µM (inactive) | 2.43 µM (inactive) | 14.3 µM (inactive)
NP(=O)(Oc1c2occc2cc2ccc(=O)oc12)N(CCCl)CCCl (stereo not given) | > 100 µM (inactive) | > 100 µM (inactive) | > 100 µM (inactive) | > 100 µM (inactive) | 49.1 µM (inactive) | > 100 µM (inactive) | > 100 µM (inactive) | 37.6 µM (inactive) | > 100 µM (inactive) | > 100 µM (inactive) | 28.8 µM (inactive) | > 100 µM (inactive) | 73.6 µM (inactive) | > 100 µM (inactive) | 58.2 µM (inactive) | > 100 µM (inactive) | 27.9 µM (inactive) | > 100 µM (inactive) | 38.5 µM (inactive) | > 100 µM (inactive)
O=C1C(Cl)=C(N2C(=O)CCC2=O)C(=O)c2ccccc21 | 20.5 µM (inactive) | 15.2 µM (inactive) | 34.2 µM (inactive) | 22.5 µM (inactive) | 7.83 µM (inactive) | 29 µM (inactive) | 2.83 µM (inactive) | 27.3 µM (inactive) | 27.5 µM (inactive) | 19.4 µM (inactive) | 50.7 µM (inactive) | 17.8 µM (inactive) | 37.1 µM (inactive) | 53.2 µM (inactive) | 40.1 µM (inactive) | 39.8 µM (inactive) | 19.8 µM (inactive) | 52.6 µM (inactive) | 32 µM (inactive) | 23.9 µM (inactive)
O=C1NCC2(CCN(Cc3ccccc3)CC2)N1 | > 100 µM (inactive) | > 100 µM (inactive) | > 100 µM (inactive) | > 100 µM (inactive) | > 100 µM (inactive) | > 100 µM (inactive) | > 100 µM (inactive) | > 100 µM (inactive) | > 100 µM (inactive) | > 100 µM (inactive) | > 100 µM (inactive) | > 100 µM (inactive) | > 100 µM (inactive) | > 100 µM (inactive) | > 100 µM (inactive) | > 100 µM (inactive) | > 100 µM (inactive) | > 100 µM (inactive) | > 100 µM (inactive) | > 100 µM (inactive)
CCOc1ccc(NC(=O)C(=O)C(/C(=N/N)C(=O)OC)c2nc3ccc([N+](=O)[O-])cc3nc2O)cc1 (stereo not given) | > 100 µM (inactive) | > 100 µM (inactive) | > 100 µM (inactive) | > 100 µM (inactive) | > 100 µM (inactive) | > 100 µM (inactive) | > 100 µM (inactive) | > 100 µM (inactive) | > 100 µM (inactive) | > 100 µM (inactive) | > 100 µM (inactive) | > 100 µM (inactive) | > 100 µM (inactive) | > 100 µM (inactive) | > 100 µM (inactive) | > 100 µM (inactive) | > 100 µM (inactive) | > 100 µM (inactive) | 70 µM (inactive) | > 100 µM (inactive)
N#Cc1ccc(NC(=O)C(CC(=O)OCc2ccccc2)NC(=O)OCc2ccccc2)cc1 (stereo not given) | > 10 µM (inactive) | > 10 µM (inactive) | > 10 µM (inactive) | 93.3 µM (inactive) | > 10 µM (inactive) | > 10 µM (inactive) | > 10 µM (inactive) | > 10 µM (inactive) | > 10 µM (inactive) | > 10 µM (inactive) | > 10 µM (inactive) | > 10 µM (inactive) | > 10 µM (inactive) | > 10 µM (inactive) | > 10 µM (inactive) | > 100 µM (inactive) | 92 µM (inactive) | > 10 µM (inactive) | > 10 µM (inactive) | > 10 µM (inactive)
CCOC(=O)NC(Nc1ccc(F)cc1)(C(=O)OCC)C(F)(F)F (stereo not given) | > 100 µM (inactive) | > 26 µM (inactive) | > 100 µM (inactive) | > 100 µM (inactive) | > 100 µM (inactive) | > 100 µM (inactive) | < 0.0307 µM (active) | 0.153 µM (active) | > 100 µM (inactive) | > 62.1 µM (inactive) | 6.71 µM (inactive) | > 100 µM (inactive) | 7.06 µM (inactive) | 4.15 µM (inactive) | > 100 µM (inactive) | 0.982 µM (active) | 0.192 µM (active) | > 100 µM (inactive) | > 100 µM (inactive) | > 100 µM (inactive)
